Results from patent US20230414599A1, “NICOTINAMIDE, NICOTINAMIDE PRECURSORS AND NICOTINAMIDE METABOLITES AND COMPOSITIONS THEREOF FOR REDUCING THE TIME TO RESOLUTION OF SYMPTOMS IN PATIENTS WITH COVID-19 AND OTHER VIRAL INFECTIONS” (CONARIS RESEARCH INSTITUTE AG, priority 2020, published 2023).
Where two headings read alike, the source gives them in different places.

Tested on: COVID-19
Conditions: 500 mg IR + 500 mg CICR-NAM daily; for Ability to perform normal activities, complaint scale 0-6, mean change / Ability to perform normal activities, complaint scale 0-6, median change: week 6 - baseline
[1] = week 4, current or former smokers, n = 75
[2] = week 4, patients with cough and fever, n = 15
[3] = week 4, patients with cough, n = 106
[4] = week 4, patients with fever, n = 21
[5] = week 4, ≥1 risk factor for severe COVID-19, n = 117
[6] = BMI ≥30.0 or type 2 diabetes, n = 27
[7] = current or former smokers, n = 75
[8] = patients with cough and fever, n = 15
[9] = ≥1 risk factor for severe COVID-19, n = 117
[10] = week 6, BMI ≥30.0 or type 2 diabetes, n = 27
[11] = week 6, current or former smokers, n = 75
[12] = week 6, patients with cough and fever, n = 15
[13] = week 6, patients with cough, n = 106
[14] = week 6, patients with fever, n = 21
[15] = week 6, ≥1 risk factor for severe COVID-19, n = 117

NC(=O)c1cccnc1 [Nicotinamide, nicotinamide]
Ability to perform normal activities worse vs baseline, % of patients [1]: 6.67% | Ability to perform normal activities worse vs baseline, patients [1]: 5 | Ability to perform normal activities, complaint scale 0-6, mean [1]: 0.920 | Ability to perform normal activities, complaint scale 0-6, median [1]: 0.000 | Reduced physical performance constant vs baseline, % of patients [1]: 38.67% | Reduced physical performance constant vs baseline, patients [1]: 29 | Reduced physical performance improved vs baseline, % of patients [1]: 56.00% | Reduced physical performance improved vs baseline, patients [1]: 42 | Reduced physical performance worse vs baseline, % of patients [1]: 5.33% | Reduced physical performance worse vs baseline, patients [1]: 4 | Ability to perform normal activities, complaint scale 0-6, mean [2]: 1.200 | Ability to perform normal activities, complaint scale 0-6, median [2]: 0.0 | Ability to perform normal activities, complaint scale 0-6, mean [3]: 0.736 | Ability to perform normal activities, complaint scale 0-6, median [3]: 0.0 | Ability to perform normal activities, complaint scale 0-6, mean [4]: 1.048 | Ability to perform normal activities, complaint scale 0-6, median [4]: 0.0 | Ability to perform normal activities constant vs baseline, % of patients [5]: 8.55% | Ability to perform normal activities constant vs baseline, patients [5]: 10 | Ability to perform normal activities improved vs baseline, % of patients [5]: 84.62% | Ability to perform normal activities improved vs baseline, patients [5]: 99 | Ability to perform normal activities worse vs baseline, % of patients [5]: 6.84% | Ability to perform normal activities worse vs baseline, patients [5]: 8 | Ability to perform normal activities, complaint scale 0-6, mean [5]: 0.880 | Ability to perform normal activities, complaint scale 0-6, median [5]: 0.0 | Reduced physical performance constant vs baseline, % of patients [5]: 47.86% | Reduced physical performance constant vs baseline, patients [5]: 56 | Reduced physical performance improved vs baseline, % of patients [5]: 47.01% | Reduced physical performance improved vs baseline, patients [5]: 55 | Reduced physical performance worse vs baseline, % of patients [5]: 5.13% | Reduced physical performance worse vs baseline, patients [5]: 6 | Ability to perform normal activities, complaint scale 0-6, mean change [6]: −1.741 | Ability to perform normal activities, complaint scale 0-6, median change [6]: −2.000 | Ability to perform normal activities, complaint scale 0-6, mean change [7]: −2.587 | Ability to perform normal activities, complaint scale 0-6, median change [7]: −3.000 | Ability to perform normal activities, complaint scale 0-6, mean change [8]: −2.933 | Ability to perform normal activities, complaint scale 0-6, median change [8]: −3.0 | Ability to perform normal activities, complaint scale 0-6, mean change (patients with cough, n = 106): −2.255 | Ability to perform normal activities, complaint scale 0-6, median change (patients with cough, n = 106): −2.0 | Ability to perform normal activities, complaint scale 0-6, mean change (patients with fever, n = 21): −3.238 | Ability to perform normal activities, complaint scale 0-6, median change (patients with fever, n = 21): −4.0 | Ability to perform normal activities, complaint scale 0-6, mean change [9]: −2.419 | Ability to perform normal activities, complaint scale 0-6, median change [9]: −3.0 | Ability to perform normal activities constant vs baseline, % of patients [10]: 11.11% | Ability to perform normal activities constant vs baseline, patients [10]: 3 | Ability to perform normal activities improved vs baseline, % of patients [10]: 74.07% | Ability to perform normal activities improved vs baseline, patients [10]: 20 | Ability to perform normal activities worse vs baseline, % of patients [10]: 14.81% | Ability to perform normal activities worse vs baseline, patients [10]: 4 | Ability to perform normal activities, complaint scale 0-6, mean [10]: 1.296 | Ability to perform normal activities, complaint scale 0-6, median [10]: 1.000 | Cough complaint scale 0-6, mean [10]: 0.370 | Cough complaint scale 0-6, median [10]: 0.000 | Ability to perform normal activities constant vs baseline, % of patients [11]: 12.00% | Ability to perform normal activities constant vs baseline, patients [11]: 9 | Ability to perform normal activities improved vs baseline, % of patients [11]: 82.67% | Ability to perform normal activities improved vs baseline, patients [11]: 62 | Ability to perform normal activities worse vs baseline, % of patients [11]: 5.33% | Ability to perform normal activities worse vs baseline, patients [11]: 4 | Ability to perform normal activities, complaint scale 0-6, mean [11]: 0.787 | Ability to perform normal activities, complaint scale 0-6, median [11]: 0.000 | Presence of cough constant vs baseline, % of patients [11]: 54.67% | Presence of cough constant vs baseline, patients [11]: 41 | Presence of cough improved vs baseline, % of patients [11]: 42.67% | Presence of cough improved vs baseline, patients [11]: 32 | Presence of cough worse vs baseline, % of patients [11]: 2.67% | Presence of cough worse vs baseline, patients [11]: 2 | Reduced physical performance constant vs baseline, % of patients [11]: 38.67% | Reduced physical performance constant vs baseline, patients [11]: 29 | Reduced physical performance improved vs baseline, % of patients [11]: 56.00% | Reduced physical performance improved vs baseline, patients [11]: 42 | Reduced physical performance worse vs baseline, % of patients [11]: 5.33% | Reduced physical performance worse vs baseline, patients [11]: 4 | Ability to perform normal activities, complaint scale 0-6, mean [12]: 1.067 | Ability to perform normal activities, complaint scale 0-6, median [12]: 0.0 | Ability to perform normal activities, complaint scale 0-6, mean [13]: 0.660 | Ability to perform normal activities, complaint scale 0-6, median [13]: 0.0 | Ability to perform normal activities, complaint scale 0-6, mean [14]: 0.762 | Ability to perform normal activities, complaint scale 0-6, median [14]: 0.0 | Ability to perform normal activities constant vs baseline, % of patients [15]: 11.97% | Ability to perform normal activities constant vs baseline, patients [15]: 14 | Ability to perform normal activities improved vs baseline, % of patients [15]: 82.05% | Ability to perform normal activities improved vs baseline, patients [15]: 96 | Ability to perform normal activities worse vs baseline, % of patients [15]: 5.98% | Ability to perform normal activities worse vs baseline, patients [15]: 7 | Ability to perform normal activities, complaint scale 0-6, mean [15]: 0.769 | Ability to perform normal activities, complaint scale 0-6, median [15]: 0.0 | Fatigue constant vs baseline, % of patients [15]: 38.46% | Fatigue constant vs baseline, patients [15]: 45 | Fatigue improved vs baseline, % of patients [15]: 59.83% | Fatigue improved vs baseline, patients [15]: 70 | Fatigue worse vs baseline, % of patients [15]: 1.71% | Fatigue worse vs baseline, patients [15]: 2 | Reduced physical performance constant vs baseline, % of patients [15]: 40.17% | Reduced physical performance constant vs baseline, patients [15]: 47 | Reduced physical performance improved vs baseline, % of patients [15]: 54.70% | Reduced physical performance improved vs baseline, patients [15]: 64 | Reduced physical performance worse vs baseline, % of patients [15]: 5.13% | Reduced physical performance worse vs baseline, patients [15]: 6
